In patent publication US20130096310A1, “ISOQUINOLINE DERIVATIVE” (TAISHO PHARMACEUTICAL CO., LTD., priority 2010, published 2013):

The molecules below were run against T1, CRTH2 (Homo sapiens, UniProt Q9Y5Y4) (assay: CRTH2 antagonist test: inhibition of PGD2-induced intracellular calcium ion concentration increase in KB8 cells). Conditions: KB8 cells (human cells expressing CRTH2); PGD2 final concentration 100 nM; Fluo-4-AM, FDSS6000.
T1 construct: expressed in transfected cells; host or cells: KB8 cells (human)
T1 sequence (Q9Y5Y4 1-395): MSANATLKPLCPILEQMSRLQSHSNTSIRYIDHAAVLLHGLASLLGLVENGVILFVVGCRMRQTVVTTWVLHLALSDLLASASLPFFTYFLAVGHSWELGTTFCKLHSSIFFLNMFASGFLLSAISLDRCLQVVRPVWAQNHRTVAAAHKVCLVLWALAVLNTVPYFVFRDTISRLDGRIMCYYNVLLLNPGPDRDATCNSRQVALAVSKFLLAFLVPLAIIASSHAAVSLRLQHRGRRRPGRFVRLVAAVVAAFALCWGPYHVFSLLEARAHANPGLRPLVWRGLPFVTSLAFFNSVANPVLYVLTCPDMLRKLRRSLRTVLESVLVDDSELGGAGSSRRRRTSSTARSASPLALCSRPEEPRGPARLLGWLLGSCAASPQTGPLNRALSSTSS
Assay type: cell-based
Protocol: The antagonist activity of the compound of the present invention was considered by using the intracellular calcium ion concentration increase reaction induced when the prostaglandin D2 was added to KB8 cells, which are human cells on which CRTH2 is expressed.
Fluo-4-AM (SIGMA, final concentration: 1 μM) was added to KB8 cells, and the cells were incubated at 37° C. for 30 minutes, washed with phosphate buffer (Invitrogen), and then suspended in Hank's balanced salt solution (Invitrogen) containing a reaction buffer solution (10 mM HEPES (Invitrogen), and 1 mM calcium chloride (SIGMA)). The suspension was dispensed in a 96 well plate (Nunc) so that 2×10^5 cells/well were placed, and the compound of the present invention and PGD2 (final concentration: 100 nM) were added. The fluorescence intensity thereof was measured over time by using FDSS6000 (Hamamatsu Photonics), and thus the maximum fluorescence intensity value “d” was obtained. The same procedure was carried out in the absence of the compound, and the maximum fluorescence intensity value “e” was obtained; and the same procedure was carried out in the absence of the compound and in […], and the maximum fluorescence intensity value “f” was obtained.
The calcium ion concentration increase inhibition rate of a compound was calculated by the following calculation equation:
Inhibitory rate(%)=[1−(d−f)/(e−f)]×100
That is to say, by using calcium ion concentration increase inhibitory rates of compounds to be tested having various concentrations, the IC50 value was calculated according to a dose-dependent inhibition curve analyzed by using XLfit (IDBS) as a data analysis software, and the value was defined as an indicator of the antagonist activity.

SMILES	IC50 [µM]
Cc1cc(Cc2ncc(CC(=O)O)c3ccccc23)ccc1C(=O)NCCc1ccc(Cl)cc1 [Example 5, [1-(4-{[2-(4-chlorophenyl)ethyl]carbamoyl}-3-methylbenzyl)isoquinolin-4-yl]acetic acid]	0.042
O=C(O)Cc1cnc(C(F)(F)c2ccc(C(=O)NCCc3ccc(Cl)cc3)cc2)c2ccccc12 [Example 2, {1-[(4-{[2-(4-chlorophenyl)ethyl]carbamoyl}phenyl)(difluoro)methyl]isoquinolin-4-yl}acetic acid]	0.036
O=C(O)Cc1cnc(Cc2ccc(C(=O)NCCc3ccc(Cl)cc3)cc2F)c2ccccc12 [Example 4, [1-(4-{[2-(4-chlorophenyl)ethyl]carbamoyl}-2-fluorobenzyl)isoquinolin-4-yl]acetic acid]	0.015
COc1cc(Cc2ncc(CC(=O)O)c3ccccc23)ccc1C(=O)NCCc1ccc(Cl)cc1 [Example 3, [1-(4-{[2-(4-chlorophenyl)ethyl]carbamoyl}-3-methoxybenzyl)isoquinolin-4-yl]acetic acid]	0.017

The next molecules have a lower IC50 than those just listed; values first:

IC50 [µM]	SMILES
0.014	O=C(O)Cc1cnc(Cc2ccc(C(=O)NCCc3ccc(Cl)cc3)c(C(F)(F)F)c2)c2ccccc12 [Example 7, {1-[4-{[2-(4-chlorophenyl)ethyl]carbamoyl}-3-(trifluoromethyl)benzyl]isoquinolin-4-yl}acetic acid]
0.0087	O=C(O)Cc1cnc(Cc2ccc(C(=O)NCCc3ccc(Cl)cc3)c(F)c2)c2ccccc12 [Example 6, [1-(4-{[2-(4-chlorophenyl)ethyl]carbamoyl}-3-fluorobenzyl)isoquinolin-4-yl]acetic acid]
0.0044	CC(c1ccc(C(=O)NCCc2ccc(Cl)cc2)cc1)c1ncc(CC(=O)O)c2ccccc12 (stereo not shown) [Example 1, {1-[1-(4-{[2-(4-chlorophenyl)ethyl]carbamoyl}phenyl)ethyl]isoquinolin-4-yl}acetic acid]
